Results as given in patent US6479513B2, “Anticancer compound and enantiomer separation method useful for synthesizing said compound” (Pfizer Inc., priority 2000, dated 2002).

Target: T1, human farnesyl transferase (FTase) (Homo sapiens, UniProt P49354+P49356)
T1 construct: comprising the cytosolic fraction of homogenized brain tissue; from tissue; host or cells: brain tissue, cytosolic fraction (crude FTase)
Assay: in vitro inhibition of human FTase, farnesyl transferase (3H) scintillation proximity assay
Assay type: biochemical
Text: The activity of the compounds of formula 1 and formula 2 as Ras farnesylation inhibitors may be determined by their ability, relative to a control, to inhibit Ras farnesyl transferase in vitro. An example of one such procedure is described below.
A crude preparation of human farnesyl transferase (FTase) comprising the cytosolic fraction of homogenized brain tissue is used for screening compounds in a 96-well assay format. […]
The assay used to measure in vitro inhibition of human FTase is a modification of the method described by Amersham LifeScience for using their Farnesyl transferase (3H) Scintillation Proximity Assay (SPA) kit (TRKQ 7010). FTase enzyme activity is determined in a volume of 100 μl containing 50 mM N-(2-hydroxy ethyl) piperazine-N-(2-ethane sulfonic acid) (HEPES), pH 7.5, 30 mM MgCl2, 20 mM KCl, 25 mM Na2HPO4, 5 mM dithiothreitol (DTT), 0.01% Triton X-100, 5% dimethyl sulfoxide (DMSO), […] of crude FTase, […] [3H]-famesyl pyrophosphate ([3H]-FPP; 36000 dpm/pmole, Amersham LifeScience), and 0.2 μM of biotinylated Ras peptide KTKCVIS (Bt-KTKCVIS) that is N-terminally biotinylated at its alpha amino group and was synthesized and purified by HPLC in house. […] The amount of radioactivity bound to the SPA beads is determined using a MicroBeta 1450 plate counter. […]

In the case of `Cn1cncc1C(N)(c1ccc(Cl)nc1)c1ccc2c(c1)c(-c1cccc(Cl)c1)cc(=O)n2CC1CC1` (single isomer, unassigned; (+)) [Example 8, (+)-6-[Amino-(6-chloro-pyridin-3-yl)-(3-methyl-3H -imidazol-4-yl)-methyl]-4-(3-chloro-phenyl)-1-cyclopropylmethyl-1H-quinolin-2-one], the “activity in inhibiting the enzyme farnesyl protein transferase, relative to the levorotatory isomer” value (compared with the levorotatory isomer, figures not given) is reported as “greater activity” and the IC50 (crude FTase (cytosolic fraction of brain tissue), [3H]-FPP, Bt-KTKCVIS, 45 minute incubation at 37° C., read-out: IC50 value for inhibiting farnesylation of the biotinylated KTKCVIS-peptide) is reported as less than 500 nM.
